Measurements: PubChem BioAssay (NCI)
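1) Cells in 96-well plates. 2) Compound, 48 h, 5 concentrations. 3) Linear interpolation between surrounding doses. 4) Unreached endpoint = highest concentration. GI50: concentration for 50% inhibition of growth. TGI: concentration producing complete growth inhibition.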 *1 amine or outer side, *2 acyl side, *3 side chain or, on linkers, in order; H or OH if unused. Where a SMILES comes first, the peptide text is derived from it. Bridges are numbered along the chain shown (N, C = ends). Roman numbers before positions name the chains, in order. [ ]: non-standard residue; d: D form. Actinocin(9to1) = Cc1c2oc3c(C)ccc(C(=O)[*:1])c3nc-2c(C(=O)[*:2])c(N)c1=O; Hyp = O=C(O)[CH]1C[CH](O)CN1; NMeV = CN[CH](C(=O)O)C(C)C; Sar = CNCC(=O)O

Tests used:
Experiment in all cases: NCI tumour cell line growth inhibition, 48 h
A498 renal = test system: A498 renal
BT-549 breast = test system: BT-549 breast
CAKI-1 renal = test system: CAKI-1 renal
HL-60(TB) leukemia = test system: HL-60(TB) leukemia
HOP-92 NSCLC = test system: HOP-92 NSCLC
IGROV1 ovarian = test system: IGROV1 ovarian
SF-268 CNS = test system: SF-268 CNS
SK-OV-3 ovarian = test system: SK-OV-3 ovarian
HOP-62 NSCLC = test system: HOP-62 NSCLC

Compound	TGI (A498 renal) [µM]	TGI (BT-549 breast) [µM]	TGI (CAKI-1 renal) [µM]	TGI (HL-60(TB) leukemia) [µM]	TGI (HOP-92 NSCLC) [µM]	TGI (IGROV1 ovarian) [µM]	TGI (SF-268 CNS) [µM]	TGI (SK-OV-3 ovarian) [µM]	TGI (HOP-62 NSCLC) [µM]	GI50 (A498 renal) [µM]	GI50 (CAKI-1 renal) [µM]	GI50 (HOP-62 NSCLC) [µM]	GI50 (IGROV1 ovarian) [µM]	GI50 (SK-OV-3 ovarian) [µM]
C=C(C)[C@H]1C2=CC(C)=C(O2)[C@@H](O)[C@H](C(=C)C)CCC2=C[C@H]1OC2=O	> 100	> 100	> 100	> 100	> 100	> 100	> 100							
COC(=O)C1=C(O)CCCC(C2CCCCC(=O)C2C(=O)OC)=C1 (stereo unspecified)	58.7	> 100	> 100		> 100	> 100		> 100						
O=C1CC(=O)NC(=NN2C(=O)CSC2C(=O)c2ccco2)N1 (stereo unspecified)	> 100	> 100	> 100		> 100	> 100	> 100	> 100	> 100					
Cc1cc2c(c(S(=O)(=O)c3ccccc3[N+](=O)[O-])c1)NCCC2	> 100	> 100		> 100		> 100	> 100	> 100	> 100					
O=C(c1cccnc1)N1N=C(c2ccccc2)CC1(O)c1cc(F)c(Cl)cc1Cl (stereo unspecified)		43.1	> 100	51.3	59.5	59.9	> 100	> 100	39.1					
COC1=C(Cl)C(=O)c2c(O)ccc(O)c2C1=O	2.63	3.31	1.6		3.61	3.72	6.25	29.4	2.31					
CCOC1NC(=O)Oc2cc3ccccc3cc21 (stereo unspecified)		> 100		> 100	82.8	> 100	> 100	> 100	> 100					
Nc1ccc2ccc(N3CCNCC3)nc2n1		> 100	> 100	> 100	> 100	> 100	> 100	> 100	> 100					
O=C(O)c1c2c(cc3c1CC1(Cc4cc5c(cc4C1=O)CCC5)C3)CCC2 (stereo unspecified)	> 100	> 100		> 100	> 100	> 100	> 100	> 100	> 100					
Cc1c2oc3c(C)ccc(C(=O)NC4C(=O)NC(C(C)C)C(=O)N5CC(O)CC5C(=O)N(C)CC(=O)N(C)C(C(C)C)C(=O)OC4C)c3nc-2c(C(=O)NC2C(=O)NC(C(C)C)C(=O)N3CC(O)CC3C(=O)N(C)CC(=O)N(C)C(C(C)C)C(=O)OC2C)c(N)c1=O (stereo unspecified) (I: TV[Hyp][Sar][NMeV] / II: TV[Hyp][Sar][NMeV]; ester I:1-I:C, II:1-II:C; linker I:N-II:N via Actinocin(9to1); configuration not given here)	> 1		> 1	> 1	> 1	> 1	> 1	> 1	> 1					
CCCCCCCCCCCCCC[n+]1ccc(C(N)=O)cc1	21.5		15			2.91		10.9	3.45	3.07	3.04	1.51	1.05	2.33
CCOC(=O)C(Cc1ccccc1)NC(=O)c1[nH]cnc1/N=N/N(C)C (stereo unspecified)	> 100		> 100	> 100		> 100	> 100	> 100	> 100					
COC(=O)C1=C(C(=O)OC)C(N(C)C)C(C(=O)OC)=C(C(=O)OC)S1	> 100	> 100	> 100				> 100	> 100	> 100					
NC(=O)CC(N)C(=O)NC(Cc1ccccc1)C(=O)NC(Cc1ccccc1)NC(=O)C(Cc1c[nH]c2ccccc12)C(=O)O (stereo unspecified)	> 100		> 100		> 100	> 100	> 100	> 100	> 100					
O=C(N/N=C\c1cccc2ccccc12)Nc1cccc2ccccc12	51.3	> 100	83.4	60.8		> 100	> 100		23.1					
O[C@@H]1CCC[C@@H]2NC[C@@H](c3ccc4c(c3)OCO4)[C@H]12	> 100		> 100	> 100	> 100	> 100	> 100	> 100	> 100					
c1ccc(Nc2nn3c(CCCCCCCCc4nnc5sc(Nc6ccccc6)nn45)nnc3s2)cc1	> 100	> 100	> 100		> 100		> 100	> 100	> 100					
C#C[C@@]1(O)CCCC2=CC3(CC[C@]21C)SCCS3	> 100			> 100	> 100	> 100	> 100	> 100	> 100					
O=c1[nH]c2nccn2c2c1SCCN2	> 100	> 100	> 100	> 100		> 100	> 100		> 100					
